Laboratory results reported in US8445441B2, “Inhibitors of BCL-2” (Case Western Reserve University, priority 2007, dated 2013).

Columns and labels:
[1] = target: Bcl-XL (Homo sapiens, UniProt Q07817); conditions: read-out: inhibitory concentration of 50% (IC50), displacing BH3 peptides; cited from earlier work
[2] = target: T1, Bfl-1 (Homo sapiens, UniProt Q16548); conditions: read-out: inhibitory concentration of 50% (IC50), displacing BH3 peptides; cited from earlier work
T1 sequence (Q16548 1-175): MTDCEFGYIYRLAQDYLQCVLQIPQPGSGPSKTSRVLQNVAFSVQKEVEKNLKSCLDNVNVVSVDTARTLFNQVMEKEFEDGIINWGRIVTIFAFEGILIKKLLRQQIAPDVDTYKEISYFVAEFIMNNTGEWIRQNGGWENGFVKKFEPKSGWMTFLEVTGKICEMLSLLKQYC

[3] = target: T2, Bcl-B (Homo sapiens, UniProt Q9HD36); conditions: read-out: inhibitory concentration of 50% (IC50), displacing BH3 peptides; cited from earlier work
T2 sequence (Q9HD36 1-204): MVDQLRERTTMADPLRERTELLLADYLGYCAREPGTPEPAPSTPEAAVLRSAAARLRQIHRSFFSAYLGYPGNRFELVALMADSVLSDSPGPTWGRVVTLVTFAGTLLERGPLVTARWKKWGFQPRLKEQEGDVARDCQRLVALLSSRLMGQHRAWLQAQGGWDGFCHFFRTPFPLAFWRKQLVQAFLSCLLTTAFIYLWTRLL

[4] = target: T3, Bcl-2-IP3R interaction (Homo sapiens, UniProt P10415); experiment: coimmunoprecipitation of Bcl-2 with IP3R from cell extracts; format: binding; set-up: expressed in transfected cells; host or cells: Bcl-2(+) WEHI7.2 cells; also Jurkat cells (endogenous Bcl-2); conditions: 400 μM peptide; Bcl-2(+) WEHI7.2 and Jurkat cell extracts
Procedure: FIG. 4 illustrates an IP3R Peptide Inhibits Bcl-2-IP3R Interaction but Not Bim-Bcl-2 Interaction. (A and D) IP3R was immunoprecipitated from extracts of Bcl-2(+) WEHI7.2 cells (C) or Jurkat cells in the presence of 400 μM peptides. Peptide 2, but not peptide 1 or control peptide, inhibited the Bcl-2-IP3R coimmunoprecipitation. Summary of Bcl-2 immunoblot signal intensities in three […] experiments identical to (C) (mean±SEM). (B) Bcl-2 was immunoprecipitated from Bcl-2(+) WEHI7.2 cell extracts in the presence of 400 μM peptides, and coimmunoprecipitation of Bim was detected by anti-Bim immunoblotting. […] (E) Summary of Bim immunoblot signal intensities in three experiments identical to (B) (mean±SEM).
Since the IP3R binding region was narrowed down to the 80 amino acid subdomain 3a1 (aa 1347-1426), we designed two 20 amino acid peptides (peptide 1, aa 1365-1384 (SEQ ID NO:2); peptide 2, aa 1389-1408 (SEQ ID NO:3)) based on the degree of homology in this region among different IP3R isoforms. […] The inhibitory effect of peptide 2 on Bcl-2-IP3R interaction was also detected in coimmunoprecipitation assays employing both Bcl-2(+) WEHI7.2 cells (FIGS. 4A and 4B) and Jurkat cells (FIG. 4C). […]

[5] = target: T3, Bcl-2-IP3R interaction; experiment: GST pull-down of Bcl-2 from Bcl-2(+) WEHI7.2 extracts with GST-IP3R domain 3; format: binding, mouse; set-up: expressed in transfected cells; host or cells: Bcl-2(+) WEHI7.2 cells (source of Bcl-2); conditions: 1 mM peptide
From the text: To identify where Bcl-2 interacts on the IP3R, we used a series of GST-IP3R fusion constructs corresponding to five fragments covering the first N-terminal 2216 amino acids and 1 fragment corresponding to the last 160 amino acids of mouse IP3R type 1 (FIG. 3). These fragments are located in the cytoplasm and coincide with “natural” domains generated by limited proteolysis. The transmembrane domain was not included. After purification, fragments migrated as single prominent bands corresponding to their expected molecular weights, although some minor degradation products were detected.
The first set of GST pull-down experiments utilized extracts of Bcl-2(+) WEHI7.2 cells and Jurkat cells as two independent sources of Bcl-2. Cell extracts were incubated with GST-IP3R fragments prebound to glutathione sepharose resin, with equal loading of the GST-IP3R fragments. […] These experiments were repeated a total of five times with the same result. It is important to note that, following incubation of cell extracts with GST-IP3R fragments on the glutathione sepharose resin, the resin was washed extensively.
Since the IP3R binding region was narrowed down to the 80 amino acid subdomain 3a1 (aa 1347-1426), we designed two 20 amino acid peptides (peptide 1, aa 1365-1384 (SEQ ID NO:2); peptide 2, aa 1389-1408 (SEQ ID NO:3)) based on the degree of homology in this region among different IP3R isoforms. Also, preference was given to regions that have beta-turn and/or α-helical structures, rather than random-coil or nonstructured sequences, expecting that one or both of the peptides could inhibit the Bcl-2-IP3R interaction. Furthermore, the C-terminal region of domain 3a1 was not selected because of its lower accessibility and unpredictable secondary structure (Invitrogen PeptideSelect Design Tool). The scrambled sequence of peptide 2 was also synthesized and used as a control. […] The inhibitory effect of peptide 2 on Bcl-2-IP3R interaction was also detected in coimmunoprecipitation assays employing both Bcl-2(+) WEHI7.2 cells (FIGS. 4A and 4B) and Jurkat cells (FIG. 4C). […]

[6] = test system: Jurkat cells; experiment: anti-CD3-induced apoptosis (apoptotic nuclei); format: cell-based; conditions: 60 μM peptide with Chariot, 5 μg/ml anti-CD3, 24 hr, anti-CD3 alone 20%-30%
Procedure: FIG. 7 illustrates peptide 2 Enhances Anti-CD3-Induced Apoptosis in Bcl-2-Positive Cells (A) Typical apoptotic nuclear morphology (arrow, Hoechst 33342 stain) 24 hr after 5 μg/ml anti-CD3 treatment of Jurkat cells. Scale bars, 10 μm. (B) Bcl-2(−) and Bcl-2(+) WEHI7.2 cells were pre-incubated±60 μM peptides plus Chariot reagent and then incubated with 20 μg/ml anti-CD3 for 24 hr. Symbols represent the percentage of cells (mean±SEM) with apoptotic nuclei in three experiments for Bcl-2(−) and five experiments for Bcl-2(+) cells (200 cells counted per coverslip). (C) Jurkat cells were pre-incubated±60 μM peptides±Chariot reagent and then incubated with 5 μg/ml anti-CD3 for 24 hr. Symbols represent the percentage of cells (mean±SEM) with apoptotic nuclei in five experiments (240 cells counted per coverslip).
Peptide 2 also attenuated Bcl-2's inhibition of anti-CD3-induced apoptosis in Jurkat cells. In preliminary studies (data not shown), we tested several anti-CD3 concentrations. Higher concentrations of anti-CD3 induced high levels of apoptosis that might obscure the effect of the peptide. We therefore used 5 μg/ml anti-CD3, sufficient to induce 20%-30% apoptosis.

[7] = test system: Jurkat cells; experiment: anti-CD3-induced Ca2+ elevation by digital imaging; format: cell-based; conditions: Jurkat cells; 60 μM peptide with Chariot reagent
Procedure: (§1) FIGS. 6A-D illustrates peptide 2 (SEQ ID NO:3) Reverses Bcl-2's Inhibition of Anti-CD3-Induced Ca^2+Elevation. (A) Representative Ca^2+ traces (each the mean of ˜65 cells) recording anti-CD3 (arrow, time of addition)-induced Ca^2+ elevation in Bcl-2(+) WEHI7.2 cells. Peptide (60 μM) uptake was facilitated by Chariot reagent. (B) Peak anti-CD3 induced Ca^2+ elevation in Bcl-2(−) and Bcl-2(+) WEHI7.2 cells treated with peptides as in (A) [mean±SEM, five experiments for Bcl-2(−) and seven experiments for Bcl-2(+) cells, with mean 68 cells per sample per experiment]. (C) Representative Ca^2+ traces in Jurkat cells (mean 85 cells each). Treatment conditions are the same as in (A), except that a control involving addition of peptide 2 without Chariot reagent has been added. (D) Peak anti-CD3-induced Ca^2+ elevation in Jurkat cells treated with peptides as in (C) (mean±SEM, seven experiments, mean 81 cells per sample per experiment).
(§2) Next we investigated whether peptide 2 also reverses Bcl-2's inhibitory effect on Ca^2+ release through the IP3R in Bcl-2(+) and (−) WEHI7.2 clones, newly derived WEHI7.2 mixed populations exogenously expressing Bcl-2, and Jurkat cells. Optimal conditions for peptide delivery and anti-CD3 concentration were determined in preliminary experiments. Peptide delivery in the lipid bilayer is 100%, whereas the penetration of peptide 2 into cells is much less, accounting for the lesser effect in cells. Therefore, a higher concentration of peptide (60 μM) was delivered into cells using the Chariot delivery reagent. Cytoplasmic Ca^2+ concentration was continuously measured at a single-cell level by digital imaging during anti-CD3 treatment. Representative Ca^2+ traces from Bcl-2(+) WEHI7.2 cells are shown in FIG. 6A, and the average Ca^2+ elevation induced by anti-CD3 in seven experiments is summarized in FIG. 6B. Observed variations in lag phase are at least partially attributable to the fact that lymphocytes are only loosely adherent to coverslips and thus rapid buffer exchange is not possible during antibody additions. Peptide 2 enhanced anti-CD3-induced Ca^2+ elevation in Bcl-2(+) WEHI7.2 cells by 40%. […] Peptide 2 had no effect on Ca^2+ elevation when added to the cells in the absence of the Chariot reagent. […] The low Bcl-2 level in Jurkat cells and the barely detectable endogenous Bcl-2 in Bcl-2(−) WEHI7.2 cells are consistent with the higher amplitude and longer duration of the Ca^2+ response in these cells in contrast to Bcl-2(+) WEHI7.2 cells (compare FIGS. 6A and 6B to FIGS. 6C and 6D). Thus, peptide 2 modulated anti-CD3-induced Ca^2+ elevation in both Bcl-2(+) WEHI7.2 cells and Jurkat cells, consistent with the ability of peptide 2 to disrupt Bcl-2-IP3R interaction.

[8] = test system: WEHI7.2 cells; experiment: anti-CD3-induced Ca2+ elevation by digital imaging; format: cell-based; conditions: Bcl-2(+) WEHI7.2 cells; 60 μM peptide with Chariot reagent
Procedure: as §1, §2

T3 sequence (P10415 whole entry): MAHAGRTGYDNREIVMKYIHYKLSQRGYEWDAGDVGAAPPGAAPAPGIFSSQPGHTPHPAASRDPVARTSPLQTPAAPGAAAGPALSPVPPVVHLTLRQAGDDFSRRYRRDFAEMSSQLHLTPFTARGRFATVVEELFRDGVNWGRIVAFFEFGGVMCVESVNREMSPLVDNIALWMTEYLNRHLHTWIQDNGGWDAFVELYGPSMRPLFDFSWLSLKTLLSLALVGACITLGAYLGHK
Sequence of Bcl-XL (Q07817 whole entry, species assumed): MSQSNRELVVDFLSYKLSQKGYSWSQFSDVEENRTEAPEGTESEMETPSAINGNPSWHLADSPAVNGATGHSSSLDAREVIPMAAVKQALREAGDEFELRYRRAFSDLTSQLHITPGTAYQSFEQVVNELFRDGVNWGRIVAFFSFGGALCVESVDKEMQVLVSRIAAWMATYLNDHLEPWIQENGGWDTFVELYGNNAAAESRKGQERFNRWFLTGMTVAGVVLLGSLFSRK

Row | Compound | IC50 [1] [µM] | IC50 [2] [µM] | IC50 [3] [µM] | inhibition of Bcl-2-IP3R coimmunoprecipitation [4] | amount of Bcl-2 bound to GST-IP3R domain 3 [5] | anti-CD3-induced apoptosis (percentage of apoptotic cells) [6] | enhancement of anti-CD3-induced Ca2+ elevation [7] | enhancement of anti-CD3-induced Ca2+ elevation [8]
1 | Cc1cc2c(C(C)C)c(O)c(O)c(C=O)c2c(O)c1-c1c(C)cc2c(C(C)C)c(O)c(O)c(C=O)c2c1O [Gossypol, 1,6,7,1′,6′,7′-Hexahydroxy-5,5′-diisopropyl-3,3′-dimethyl-[2,2′]binaphthalenyl-8,8′-dicarbaldehyde] | ~0.5 | ~0.5 | ~0.5 | – | – | – | – | –
2 | MDENSPLMYHIHLVELLAVC (listed as Homo sapiens) [peptide 1, 20 amino acid peptide, aa 1365-1384 of IP3R subdomain 3a1] | – | – | – | did not inhibit | partially inhibited | did not have an effect | did not | did not enhance
